Assay results taken from patent publication US7658916B2, “Methods of enhancing lysosomal storage disease therapy by modulation of cell surface receptor density” (Genzyme Corporation, priority 2002, dated 2010).

Key:
Conditions in all cases: separate experiment, FIG. 9
normal fibroblast cells = assay: Alpha-galactosidase uptake by normal fibroblasts in vitro; format: cell-based, human
Procedure: Before the uptake assay, the cells were washed once with PBS and once with DMEM minus glucose media (Gibco#11966-025), then the cells were starved in 1.5 ml of DMEM minus glucose media for 1 hour at 37° C. […] The lysates were assay for alpha-galactosidase activity with 4-MU-galactoside (Sigma #M-7633) as substrate and normalized to protein content.
Human skin fibroblasts (ATCC# CRL-1502) were grown at 37° C. under 5% CO2 in MEM with Earle's balanced salts, 2× essential and non-essential amino acids (NEAA) (Gibco# 11130-051, 11140-050) and vitamin (Gibco# 1120-052), 20% fetal bovine serum (Gibco# 16000-044, not heat-inactivated) plus 1× penicillin/streptomycin. The pH of the media was adjusted to approximately 7 with sodium bicarbonate (Gibco #25080-094).

Fabry fibroblast cells = assay: Alpha-galactosidase uptake by Fabry fibroblasts in vitro; format: cell-based
Procedure: Before the uptake assay, the cells were washed once with PBS and once with DMEM minus glucose media (Gibco#11966-025), then the cells were starved in 1.5 ml of DMEM minus glucose media for 1 hour at 37° C. After starvation, the cells were switched to uptake media (DMEM with or without glucose, plus 4 mg/ml BSA, 2.5 mM beta-glycerophosphate (Sigma #G-6376), 25 mM Hepes, pH 6.8. Insulin (Calbiochem, #40769), M6P (Sigma # M-6876) and 2 μg/ml recombinant human alpha-galactosidase (as a model protein because of its better M6P phosphylation) were added as indicated in FIGS. 7A and 7B. Uptake of enzyme was continued for 4 hours at 37° C. After uptake, the cells were washed twice with PBS containing 1 mM M6P and once with PBS, then lysed in alpha-galactosidase assay buffer (50 mM sodium citrate, […]) plus 1% Triton X-100 and protease inhibitors. The lysates were assay for alpha-galactosidase activity with 4-MU-galactoside (Sigma #M-7633) as substrate and normalized to protein content.
Human skin fibroblasts (ATCC# CRL-1502) were grown at 37° C. under 5% CO2 in MEM with Earle's balanced salts, 2× essential and non-essential amino acids (NEAA) (Gibco# 11130-051, 11140-050) and vitamin (Gibco# 1120-052), 20% fetal bovine serum (Gibco# 16000-044, not heat-inactivated) plus 1× penicillin/streptomycin. […]

Hep 3B cells = assay: Alpha-galactosidase uptake by Hep3B cells (hepatocytes) in vitro; format: cell-based
Procedure: Muscles are the major target tissues for enzyme replacement therapy of Pompe disease due to the lack of acid alpha-glucosidase. To determine if the M6P/IGF-II receptor-mediated lysosomal enzyme uptake pathway can be augmented by insulin/glucose, the effects of insulin/glucose were analyzed on induced muscle cells (myotubes) in vitro. L6 myoblasts (or induced myotubes) and Hep3B cells were cultured in 6-well dishes. Rat L6 myoblasts (ATCC# CRL-1458) were cultured at 37° C. under 5% CO2 in VitaCell DMEM media (ATCC# 30-2002) with 4 mM L-glutamine, 10% fetal bovine serum (Gibco #16000-044) and 1× penicillin/streptomycin. Once confluent, cells were switched to VitaCell DMEM plus 2% horse sera (Gibco# 26050-088) and 1× penicillin/streptomycin. Media were changed every 3 days and at day 9-10, myotubes could be observed as multinuclear tubes. About 30-40% of the myoblasts formed myotubes. Cells were used for uptake assay at day 10. Hep3B cells were grown in MEM-eagle (Gibco# 11960-044) with 10% FBS, 1×NEAA, 1× sodium pyruvate and 1× penicillin/streptomycin.
Before the uptake assay, the cells were washed once with PBS and once with DMEM minus glucose media (Gibco#11966-025), then the cells were starved in 1.5 ml of DMEM minus glucose media for 1 hour at 37° C. […]

insulin: Insulin (Calbiochem, #40769)
about 200%: alpha-galactosidase uptake by normal fibroblast cells increased to (normal fibroblast cells) | alpha-galactosidase uptake by Fabry fibroblast cells increased to (Fabry fibroblast cells) | alpha-galactosidase uptake by Hep 3B cells increased to (Hep 3B cells)
